Active and inactive are the calls of the source. The calls are words filed in the database; no cut-off is given here.
What was measured:
[1] = system: Trypanosoma cruzi; assay: Antitrypanosomal activity against Trypanosoma cruzi assessed as growth inhibition; type: functional, organism-based
[2] = system: Trypanosoma brucei rhodesiense; assay: Antitrypanosomal activity against Trypanosoma brucei rhodesiense assessed as growth inhibition; type: functional, organism-based
[3] = system: L6; assay: Cytotoxicity against rat L6 cells; type: cell-based
[4] = system: Trypanosoma brucei rhodesiense; assay: In vivo […] activity against Trypanosoma brucei rhodesiense infected mouse model assessed as clear parasitaemia at 50 mg/kg, ip qd after 4 days; type: functional, organism-based; parameters: dose 50 mg/kg
[5] = system: Trypanosoma brucei rhodesiense; assay: Antitrypanosomal activity against Trypanosoma brucei rhodesiense infected mouse model assessed as clear parasitaemia at 50 mg/kg, ip qd for 4 days measured on day 9; type: functional, organism-based; parameters: dose 50 mg/kg
[6] = system: Plasmodium falciparum; assay: Antiplasmodial activity against Plasmodium falciparum assessed as growth inhibition; type: functional, organism-based
[7] = system: Giardia intestinalis; assay: Antiprotozoal activity against Giardia lamblia assessed as growth inhibition; type: functional, organism-based; conditions: Giardia duodenalis
[8] = system: Trypanosoma brucei rhodesiense; assay: Antitrypanosomal activity against Trypanosoma brucei rhodesiense infected mouse model assessed as clear parasitaemia at 50 mg/kg, ip qd for 4 days measured on day 11; type: functional, organism-based; parameters: dose 50 mg/kg
[9] = system: Mus musculus; assay: Toxicity in mouse infected with Trypanosoma brucei rhodesiense assessed as death at 50 mg/kg, ip qd after 2 administeration; type: organism-based; parameters: dose 50 mg/kg, route intraperitoneal; conditions: in vivo

Row | Structure (SMILES) | IC50 [1] [nM] | IC50 [2] [nM] | IC50 [3] [nM] | Activity [4] | Activity [5] | IC50 [6] [nM] | IC50 [7] [µM] | Activity [8] | Activity [9]
1 | O=C(Cn1ccnc1[N+](=O)[O-])NCc1ccccc1 [BENZNIDAZOLE] | 409 |  |  |  |  |  |  |  | 
2 | CCNC(=O)c1noc(-c2cc(C(C)C)c(O)cc2O)c1NC(=O)c1ccc(CN2CCOCC2)cc1 | 6590 | 18 | 201 | Active | Active | 25 | 9.74 |  | 
3 | CCNC(=O)c1noc(-c2cc(C(C)C)c(O)cc2O)c1NC(=O)c1ccco1 | 1380 | 12 | 25 |  |  | 17 | 2.36 |  | 
4 | Cc1ncc([N+](=O)[O-])n1CCO [METRONIDAZOLE] |  |  |  |  |  |  | 0.58 |  | 
5 | CCNC(=O)c1nnn(-c2cc(C(C)C)c(O)cc2O)c1-c1ccc(CC2CCCC2)cc1 | 728 | 1 | 8 |  |  | 2 | 0.356 |  | 
6 | CCNC(=O)c1noc(-c2cc(C(C)C)c(O)cc2O)c1NC(=O)c1cc(CN2CCOCC2)on1 | 8060 | 10 | 279 |  |  | 36 | 12.8 |  | 
7 | CCNC(=O)c1nnn(-c2cc(C(C)C)c(O)cc2O)c1-c1ccc(Cn2ccnc2)cc1 | 4960 | 3 | 11 |  |  | 1 | 0.4 |  | 
8 | CCNC(=O)c1noc(-c2cc(C(C)C)c(O)cc2O)c1NC(=O)[C@H]1CC[C@H](CNS(=O)(=O)c2ccc(F)cc2)CC1 | 4200 | 126 | 888 |  |  | 117 | 7.57 |  | 
9 | CCNC(=O)c1noc(-c2cc(C(C)C)c(O)cc2O)c1NC(=O)CCN1CCOCC1 | 16700 | 22 | 146 | Active |  | 37 | 0.983 | Active | 
10 | Nc1nc(N)nc(Nc2ccc([As]3SCC(CO)S3)cc2)n1 (centres undefined) [MELARSOPROL] |  | 3 |  |  |  |  |  |  | 
11 | CCNC(=O)c1noc2c1CN(C(=O)c1cc(C(C)C)c(O)cc1O)CC2 | 996 | 971 | 110 |  |  | 4520 | 4.36 |  | 
12 | CCNC(=O)c1noc(-c2cc(C(C)C)c(O)cc2O)c1NC(=O)c1ccc(OC)cc1 | 435 | 14 | 7 |  |  | 29 | 3.19 |  | 
13 | CCNC(=O)c1noc(-c2cc(C(C)C)c(O)cc2O)c1NC(=O)c1cc(CC)on1 | 554 | 18 | 20 |  |  | 35 | 4.06 |  | 
14 | COc1cc([C@@H]2c3cc4c(cc3[C@H](O)[C@H]3COC(=O)[C@H]23)OCO4)cc(OC)c1OC [PODOFILOX] |  |  | 5 |  |  |  |  |  | 
15 | CCNC(=O)c1nnn(-c2cc(C(C)C)c(O)cc2O)c1-c1ccc(CNCN2CCOCC2)cc1 | 17500 | 4 | 264 |  |  | 4 | 4.46 |  | Toxic
16 | CCNC(=O)c1nnn(-c2cc(C(C)C)c(O)cc2O)c1-c1ccc(CN2CCOCC2)cc1 | 27 | 1 | 2 |  |  | 1 | 0.067 |  | 
17 | CCNC(=O)c1noc(-c2cc(C(C)C)c(O)cc2O)c1NC(=O)[C@@H]1CC[C@H](C(=O)OC)C1 | 1460 | 763 | 40 |  |  | 26 | 6.43 |  | 
18 | CCOC(=O)c1noc2c1CN(C(=O)c1cc(C(C)C)c(O)cc1O)CC2 | 616 | 52400 | 563 |  |  | 7260 | 2.46 |  | 
19 | CCNC(=O)c1noc(-c2cc(C(C)C)c(O)cc2O)c1NC(=O)C1CCC(OC)CC1 (centres undefined) | 2700 | 4 | 15 |  |  | 12 | 8.11 |  | 

— ChEMBL document CHEMBL3352293, “Exploring in vitro and in vivo Hsp90 inhibitors activity against human protozoan parasites” (Bioorg Med Chem Lett, 2015)
